Source: article PMC3175280 (Neurochemistry international, 2011)
Values joined by “and” are separate entries in the source; they are usually repeats but may differ in a detail not shown here. Equal values may be shown once.

What was measured:
[1] = target: T1, S299Cα1β1γ2S GABAA receptors (Rattus norvegicus, UniProt P15431+P18508+P62813, S325C); assay: Substituted cysteine accessibility; format: cell-based; conditions: for reduction of subsequent ALLO induced current: 0.5 mM pCMBS added with 5 nM ALLO; for inhibition of subsequent ALLO induced current: 0.5 mM pCMBS added with 100 nM ALLO
[2] = target: T1, S299Cα1β1γ2S GABAA receptors; assay: Extreme low dose assay; format: cell-based; conditions: for co-application current, scaled to the added currents = 1 / added separate currents, scaled: n=4; for difference between co-applied and added currents: not significant
[3] = target: T2, wt α1β1γ2S GABAA receptors (Rattus norvegicus, UniProt P15431+P18508+P62813); format: cell-based; conditions: 0.5 μM ALLO, about EC30, n=3
[4] = target: T1, S299Cα1β1γ2S GABAA receptors; assay: Steroid potentiation of submaximal GABA current, S299C receptors; format: cell-based; conditions: not shown for THDOC
[5] = target: T2, wt α1β1γ2S GABAA receptors; assay: Steroid activation; format: cell-based
[6] = target: T1, S299Cα1β1γ2S GABAA receptors; assay: Steroid activation; format: cell-based; conditions: for current passed, % of 1 mM GABA current: representative trace; for first peak maximal current (curve fit), % of maximal (1 mM GABA) current: first (low concentration) peak of the bimodal dose response; for second peak maximal current (curve fit), % of maximal (1 mM GABA) current: second (high concentration) peak of the bimodal dose response
[7] = system: α1S299C containing GABAA receptors; conditions: ref Williams and Akabas 1999, 2000, 2002; cited from earlier work
[8] = target: T1, S299Cα1β1γ2S GABAA receptors; assay: Blocking ALLO-induced current with isoallopregnanolone; format: cell-based
[9] = target: wild type α1β1γ2S GABAA receptors (Rattus norvegicus, UniProt P15431+P18508+P62813); assay: P4S dose response curve, wild type receptors; format: cell-based
[10] = target: T1, S299Cα1β1γ2S GABAA receptors; assay: P4S dose response curve, S299C receptors; format: cell-based
[11] = system: α1S299C containing GABAA receptors; conditions: preliminary dose response (not shown)
[12] = target: T1, S299Cα1β1γ2S GABAA receptors; conditions: pCMBS added in the presence of GABA; ref Williams and Akabas 1999; cited from earlier work
[13] = target: T2, wt α1β1γ2S GABAA receptors; assay: SCAM with pCMBS on ALLO-induced currents, wt receptors; format: cell-based; conditions: pCMBS added in any concentration of ALLO (not shown)
[14] = target: T1, S299Cα1β1γ2S GABAA receptors; assay: Blocking ALLO-induced current with picrotoxin; format: cell-based; conditions: 1 mM PTN co-applied with 5 nM ALLO

T2 sequence (P62813 28-455): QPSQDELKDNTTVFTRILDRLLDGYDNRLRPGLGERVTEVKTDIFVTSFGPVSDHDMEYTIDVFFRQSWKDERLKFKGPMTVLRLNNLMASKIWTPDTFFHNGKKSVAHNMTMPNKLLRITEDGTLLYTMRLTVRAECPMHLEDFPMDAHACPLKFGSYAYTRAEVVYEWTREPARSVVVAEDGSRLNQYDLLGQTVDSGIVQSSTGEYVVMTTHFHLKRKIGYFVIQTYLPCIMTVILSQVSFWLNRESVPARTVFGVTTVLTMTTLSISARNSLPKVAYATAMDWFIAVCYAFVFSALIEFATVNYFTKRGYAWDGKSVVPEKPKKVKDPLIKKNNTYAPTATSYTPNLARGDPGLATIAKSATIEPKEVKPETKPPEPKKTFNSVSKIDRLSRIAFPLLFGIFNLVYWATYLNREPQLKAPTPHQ
T2 sequence (P15431 26-474): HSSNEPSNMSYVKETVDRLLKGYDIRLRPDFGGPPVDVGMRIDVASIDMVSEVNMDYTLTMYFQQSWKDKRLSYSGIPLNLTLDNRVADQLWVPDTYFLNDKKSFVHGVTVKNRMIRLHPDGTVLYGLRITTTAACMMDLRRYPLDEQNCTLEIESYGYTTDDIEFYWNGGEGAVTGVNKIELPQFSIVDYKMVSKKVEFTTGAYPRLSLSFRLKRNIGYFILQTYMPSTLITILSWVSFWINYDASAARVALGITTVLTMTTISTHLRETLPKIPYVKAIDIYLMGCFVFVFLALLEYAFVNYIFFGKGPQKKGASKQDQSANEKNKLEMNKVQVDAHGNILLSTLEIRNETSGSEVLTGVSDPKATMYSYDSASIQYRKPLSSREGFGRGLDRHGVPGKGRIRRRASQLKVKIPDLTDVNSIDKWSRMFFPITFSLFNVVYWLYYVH
T2 sequence (P18508 39-466): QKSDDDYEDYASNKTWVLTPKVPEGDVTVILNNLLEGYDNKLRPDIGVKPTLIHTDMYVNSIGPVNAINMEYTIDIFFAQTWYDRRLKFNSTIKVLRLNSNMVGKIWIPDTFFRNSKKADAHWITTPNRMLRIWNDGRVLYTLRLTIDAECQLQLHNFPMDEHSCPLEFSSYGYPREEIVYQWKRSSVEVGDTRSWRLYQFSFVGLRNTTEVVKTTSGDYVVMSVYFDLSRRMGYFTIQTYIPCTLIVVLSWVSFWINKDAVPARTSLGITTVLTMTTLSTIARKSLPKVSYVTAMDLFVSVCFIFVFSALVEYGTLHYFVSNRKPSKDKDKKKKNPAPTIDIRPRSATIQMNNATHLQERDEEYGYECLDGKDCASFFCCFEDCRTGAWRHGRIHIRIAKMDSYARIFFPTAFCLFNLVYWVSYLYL
T1 sequence (P62813 28-455 S325C): as the sequence (P62813 28-455) above, with S298C counted along it
T1 sequence (P15431 26-474): as the sequence (P15431 26-474) above
T1 sequence (P18508 39-466): as the sequence (P18508 39-466) above
Chain of wild type α1β1γ2S GABAA receptors (P62813 28-455): as the sequence (P62813 28-455) above
Chain of wild type α1β1γ2S GABAA receptors (P15431 26-474): as the sequence (P15431 26-474) above
Chain of wild type α1β1γ2S GABAA receptors (P18508 39-466): as the sequence (P18508 39-466) above

## C[C@]12CC[C@@H](O)C[C@@H]1CC[C@@H]1[C@@H]2CC[C@]2(C)C(c3ccccc3)=CC[C@@H]12 [17-PA, (3α,5α)-17-phenylandrost-16-en-3-ol]
[1]; 1 μM 17-PA added with pCMBS, subsequent 100 nM ALLO current
  percent change of 100 nM ALLO induced current: −4 ± 8%

## CC(=O)[C@H]1CC[C@H]2[C@@H]3CC[C@H]4C[C@H](O)CC[C@]4(C)[C@H]3CC[C@]12C [ALLO, 3α-hydroxy-5α-pregnan-20-one]
[2]; 100 pM ALLO + 100 nM GABA co-applied
  co-application current, scaled to the added currents = 1: 1.21 ± 0.45
[2]; 100 pM ALLO alone plus 100 nM GABA alone
  added separate currents, scaled: 1.0 ± 0.35
[2]; 5 nM ALLO + 100 nM GABA co-applied
  co-application current, scaled to the added currents = 1: 1.27 ± 0.39
[2]; 5 nM ALLO alone plus 100 nM GABA alone
  added separate currents, scaled: 1.0 ± 0.21
[2]; 100 nM GABA and 100 pM ALLO
  difference between co-applied and added currents: 20%
[2]; 100 nM GABA and 5 nM ALLO
  difference between co-applied and added currents: 27%
[3]
  potentiation, percent increase of 1 μM GABA current: 120 ± 28%
[4]
  potentiation of submaximal GABA current: no significant potentiation
[5]
  EC50: 870 nM
[5]; wt receptors, steroid alone, −60 mV
  maximal steroid induced current, % of 1 mM GABA current: about 43 ± 15%
[6]; 50 pM steroid, no GABA, n=4
  inward current, % of 1 mM GABA current: 6 ± 4%
[6]; 5 nM steroid
  current passed, % of 1 mM GABA current: approximately 50%
[6]; 100 nM steroid
  current passed, % of 1 mM GABA current: approximately 50%
[6]; EC50, first activation curve, first plateau to valley fit as a separate curve
  EC50: 0.59 nM
[6]; EC50, second activation curve, second plateau to valley fit as a separate curve
  EC50: 70 nM
[6]
  first peak maximal current (curve fit), % of maximal (1 mM GABA) current: 58 ± 0.25%
  second peak maximal current (curve fit), % of maximal (1 mM GABA) current: 42 ± 0.26%

## NCCCC(=O)O [GABA]
[7]
  response of α1S299C containing receptors compared with wild type: near wild type

## CC(=O)[C@H]1CC[C@H]2[C@@H]3CC[C@H]4C[C@@H](O)CC[C@]4(C)[C@H]3CC[C@]12C [ISO, 3β-hydroxy-5α-pregnan-20-one]
[8]; 5 nM ISO, 5 nM ALLO
  block of ALLO induced current: 90 ± 5% and 80–85%
[8]; 5 nM ISO, 100 nM ALLO
  block of ALLO induced current: 86 ± 8% and 80–85%
[8]; 100 nM ISO, 5 nM ALLO
  block of ALLO induced current: 73 ± 4%

## O=S(=O)(O)C1CCNCC1 [P4S, Piperidine-4-sulfonic acid]
[9]
  Kd: 110000 ± 37000 nM
[9]; wt, n of 3
  maximal current induced, % of 1 mM GABA current: 61 ± 3.7%
[10]
  Kd: 90000 ± 18000 nM
[10]; S299C, n of 3
  maximal current induced, % of 1 mM GABA current: 58 ± 1.6%

## C[C@]12CC[C@@H](O)C[C@@H]1CC[C@@H]1[C@@H]2CC[C@]2(C)[C@@H](C(=O)CO)CC[C@@H]12 [THDOC, 3α,21-hydroxy-5α-pregnan-20-one]
[4]
  potentiation of submaximal GABA current: no significant potentiation
[6]; 1 nM steroid
  current passed, % of 1 mM GABA current: more than 50%
[6]; 100 nM steroid
  current passed, % of 1 mM GABA current: approximately 50%
[6]
  first peak maximal current (curve fit), % of maximal (1 mM GABA) current: 57 ± 5.3%
  second peak maximal current (curve fit), % of maximal (1 mM GABA) current: 48 ± 0.35%

## CCO [ethanol, Ethanol]
[11]
  shift of EC50 versus wt: shift to a higher EC50

## O=S(=O)(O)c1cc[c]([Hg][Cl])cc1 [pCMBS^−, para-chloromercuribenzenesulfonic acid]
[1]; subsequent 5 nM ALLO current
  reduction of subsequent ALLO induced current: 28 ± 8%
  inhibition of subsequent ALLO induced current: 63 ± 15%
[1]; subsequent 100 nM ALLO current
  reduction of subsequent ALLO induced current: 22 ± 20%
  inhibition of subsequent ALLO induced current: 63 ± 15%
[1]; 0.5 mM pCMBS applied simultaneously with 5 nM ALLO
  decrease of ALLO current during co-application: 7 ± 29%
[1]; 0.5 mM pCMBS co-applied with 100 nM ALLO
  reduction of ALLO current during co-application: 62 ± 17%
[1]; pCMBS added with 1 μM ISO, subsequent 100 nM ALLO current
  percent difference in subsequent ALLO current: −71 ± 10%
[1]; pCMBS co-applied with 100 nM ISO, subsequent 5 nM ALLO current
  percent difference in subsequent ALLO current: 3 ± 14%
[1]; pCMBS plus 5 nM ISO, subsequent 5 nM or 100 nM ALLO currents (not shown)
  effect on subsequent ALLO currents: did not affect
[12]
  accessibility of S299C to modification: not accessible to be modified
[13]
  effect on subsequent ALLO induced currents: did not affect

## CC(C)c1cccc(C(C)C)c1O [propofol]
[7]
  response of α1S299C containing receptors compared with wild type: near wild type

## Picrotoxin [PTN]
[14]
  block of ALLO induced current: 80 ± 20% and ~80%
